Data: US8853196B2, “Aminochromane, aminothiochromane and amino-1,2,3,4-tetrahydroquinoline derivatives, pharmaceutical compositions containing them, and their use in therapy” (AbbVie Deutschland GmbH & Co. KG, priority 2011, dated 2014)
Where a name gives a salt, the structure may show the parent alone.

target: T1, human GlyT1c transporter (Homo sapiens, UniProt P48067); test: Radioligand binding assay using recombinant CHO cell membranes expressing human GlyT1; details: values given as upper bounds, read-out: radioligand binding Kiapp
T1 construct: expressed in transfected cells; host or cells: CHO cells (recombinant; membranes)
T1 sequence (P48067 1-706): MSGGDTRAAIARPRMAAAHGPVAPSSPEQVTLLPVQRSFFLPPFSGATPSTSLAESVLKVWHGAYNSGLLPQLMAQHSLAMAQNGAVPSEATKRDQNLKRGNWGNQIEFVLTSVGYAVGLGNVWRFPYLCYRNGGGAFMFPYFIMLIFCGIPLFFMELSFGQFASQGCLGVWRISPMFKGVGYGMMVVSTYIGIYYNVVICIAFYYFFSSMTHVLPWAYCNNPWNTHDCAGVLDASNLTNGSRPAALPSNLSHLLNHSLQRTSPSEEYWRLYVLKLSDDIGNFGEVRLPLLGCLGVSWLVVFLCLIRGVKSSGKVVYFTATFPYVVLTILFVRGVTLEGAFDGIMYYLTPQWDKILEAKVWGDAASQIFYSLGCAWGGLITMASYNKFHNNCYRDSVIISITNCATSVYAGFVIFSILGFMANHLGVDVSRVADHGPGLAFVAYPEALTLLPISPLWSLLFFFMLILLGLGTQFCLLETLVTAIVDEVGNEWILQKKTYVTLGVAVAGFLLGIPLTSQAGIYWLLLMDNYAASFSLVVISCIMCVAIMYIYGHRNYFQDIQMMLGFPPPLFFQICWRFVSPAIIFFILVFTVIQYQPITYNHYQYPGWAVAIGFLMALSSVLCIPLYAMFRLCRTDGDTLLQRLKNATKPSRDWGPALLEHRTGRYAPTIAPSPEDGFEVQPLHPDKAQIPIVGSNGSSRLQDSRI
Description: 2. Radioligand Binding Assays Using Recombinant CHO Cell Membranes Expressing Human GlyT1:
Radioligand binding to human GlyT1c transporter-expressing membranes was determined as described in Mezler et al., Molecular Pharmacology 74:1705-1715, 2008.

Row | SMILES | Ki [µM]
1 | N[C@@H]1COc2ccc(CNS(=O)(=O)CC3CC3)cc2[C@H]1Cc1ccccc1 (relative stereo) [Example 68, trans-N-(-3-Amino-4-benzyl-chroman-6-ylmethyl)-C-cyclopropyl-methanesulfonamide] | ≤ 0.1
2 | O=S(=O)(CC1CC1)NCc1ccc2c(c1)C(Cc1ccccc1)C(N1CCC1)CO2 (stereo not shown) [Example 21, N-(3-Azetidin-1-yl-4-benzyl-chroman-6-ylmethyl)-C-cyclopropyl-methane-sulfonamide; trifluoro-acetic acid salt] | ≤ 0.1
3 | CCn1cc(S(=O)(=O)NCc2ccc3c(c2)C(Cc2ccccc2)C(N)CO3)cn1 (stereo not shown) [Example 57, 1-Ethyl-1H-pyrazole-4-sulfonic acid (3-amino-4-benzyl-chroman-6-ylmethyl)-amide 2,2,2-trifluoroacetate] | ≤ 1
4 | Cn1ccc(S(=O)(=O)NCc2ccc3c(c2)C(Cc2ccccc2)C(N)CO3)n1 (stereo not shown) [Example 46, 1-Methyl-1H-pyrazole-3-sulfonic acid (3-amino-4-benzyl-chroman-6-ylmethyl)-amide 2,2,2-trifluoroacetate] | ≤ 1
5 | CC1CCCN(S(=O)(=O)NCc2ccc3c(c2)C(Cc2ccccc2)C(N)CO3)C1 (stereo not shown) [Example 43, 3-Methyl-piperidine-1-sulfonic acid (3-amino-4-benzyl-chroman-6-ylmethyl)-amide 2,2,2-trifluoroacetate] | ≤ 1
6 | Cn1cnc(S(=O)(=O)NCc2ccc3c(c2)[C@H](Cc2ccccc2)[C@H](NCCC2CCCC2)CO3)c1 (relative stereo) [Example 34, cis-N-((-4-benzyl-3-((2-cyclopentylethyl)amino)chroman-6-yl)methyl)-1-methyl-1H-imidazole-4-sulfonamide 2,2,2-trifluoroacetate] | ≤ 10
7 | Cn1cnc(S(=O)(=O)NCc2ccc3c(c2)[C@H](Cc2ccccc2)[C@H](NCC2CCC2)CO3)c1 (relative stereo) [Example 41, cis-N-((-4-benzyl-3-((cyclobutylmethyl)amino)chroman-6-yl)methyl)-1-methyl-1H-imidazole-4-sulfonamide 2,2,2-trifluoroacetate] | ≤ 0.01
8 | Cn1cc(S(=O)(=O)NCc2ccc3c(c2)[C@H](Cc2ccccc2)[C@H](N2CCCC2)CO3)cn1 (relative stereo) [Example 66, cis-1-Methyl-1H-pyrazole-4-sulfonic acid (-4-benzyl-3-pyrrolidin-1-yl-chroman-6-ylmethyl)-amide] | ≤ 0.01
9 | CC(C)CN[C@@H]1COc2ccc(CNS(=O)(=O)c3cn(C)cn3)cc2[C@@H]1Cc1ccccc1 (relative stereo) [Example 37, cis-N-((-4-benzyl-3-(isobutylamino)chroman-6-yl)methyl)-1-methyl-1H-imidazole-4-sulfonamide 2,2,2-trifluoroacetate] | ≤ 0.01
10 | Cc1cc(S(=O)(=O)NCc2ccc3c(c2)C(Cc2ccccc2)C(N)CO3)c(C)o1 (stereo not shown) [Example 50, 2,5-Dimethyl-furan-3-sulfonic acid (3-amino-4-benzyl-chroman-6-ylmethyl)-amide 2,2,2-trifluoroacetate] | ≤ 0.1
11 | Cc1ccc(S(=O)(=O)NCc2ccc3c(c2)C(Cc2ccccc2)C(N)CO3)s1 (stereo not shown) [Example 53, 5-Methyl-thiophene-2-sulfonic acid (3-amino-4-benzyl-chroman-6-ylmethyl)-amide 2,2,2-trifluoroacetate] | ≤ 1

More lines, now with the values ahead:

Row | Ki [µM] | SMILES
12 | ≤ 0.1 | CN[C@@H]1COc2ccc(CNS(=O)(=O)C3CCC3)cc2[C@@H]1Cc1ccccc1 (relative stereo) [Example 25, cis-Cyclobutanesulfonic acid (4-benzyl-3-methylamino-chroman-6-ylmethyl)-amide]
13 | ≤ 0.1 | CCS(=O)(=O)NCCOc1ccc2c(c1)[C@H](Cc1ccccc1)[C@H](N1CCC1)CO2 (relative stereo) [Example 18, cis-Ethanesulfonic acid [2-(3-azetidin-1-yl-4-benzyl-chroman-6-yloxy)-ethyl]-amide]
14 | ≤ 1 | CCCS(=O)(=O)NCCOc1ccc2c(c1)[C@@H](Cc1ccccc1)[C@H](NC)C(C)(C)O2 (relative stereo) [Example 75, trans-Propane-1-sulfonic acid (2-(-4-benzyl-2,2-dimethyl-3-methylamino-chroman-6-yloxy)-ethyl]-amide]
15 | ≤ 0.01 | CN[C@@H]1COc2ccc(CNS(=O)(=O)CC3CC3)cc2[C@@H]1Cc1ccccc1 (relative stereo) [Example 8a, cis-N-{[4-Benzyl-3-(methylamino)-3,4-dihydro-2H-chromen-6-yl]methyl}-1-cyclopropylmethanesulfonamide]
16 | ≤ 0.01 | CN[C@@H]1COc2ccc(CNS(=O)(=O)c3cn(C)cn3)cc2[C@@H]1Cc1ccccc1 (relative stereo) [Example 5a, cis-1-Methyl-1H-imidazole-4-sulfonic acid (4-benzyl-3-methylamino-chroman-6-ylmethyl)-amide]
17 | ≤ 0.01 | CN[C@@H]1COc2ccc(CNS(=O)(=O)c3cnn(C)c3)cc2[C@H]1Cc1ccccc1 (relative stereo) [Example 6b, trans-N-{[-4-benzyl-3-(methylamino)-3,4-dihydro-2H-chromen-6-yl]methyl}-1-methyl-1H-pyrazole-4-sulfonamide]
18 | ≤ 0.1 | CCC(C)S(=O)(=O)NCc1ccc2c(c1)C(Cc1ccccc1)C(N)CO2 (stereo not shown) [Example 47, Butane-2-sulfonic acid (3-amino-4-benzyl-chroman-6-ylmethyl)-amide 2,2,2-trifluoroacetate]
19 | ≤ 0.01 | CN[C@@H]1COc2ccc(OCCNS(=O)(=O)c3cn(C)cn3)cc2[C@H]1Cc1ccccc1 (relative stereo) [Example 2b, trans-N-(2-{[-4-benzyl-3-(methylamino)-3,4-dihydro-2H-chromen-6-yl]oxy}ethyl)-1-methyl-1H-imidazole-4-sulfonamide]
20 | ≤ 1 | CC(C)S(=O)(=O)NCc1ccc2c(c1)C(Cc1ccccc1)C(N)CO2 (stereo not shown) [Example 48, Propane-2-sulfonic acid (3-amino-4-benzyl-chroman-6-ylmethyl)-amide 2,2,2-trifluoroacetate]
21 | ≤ 0.1 | CCCS(=O)(=O)NCc1ccc2c(c1)[C@@H](Cc1ccccc1)[C@H](N)CO2 (relative stereo) [Example 72, trans-Propane-1-sulfonic acid (-3-amino-4-benzyl-chroman-6-ylmethyl)-amide]
22 | ≤ 1 | CCCS(=O)(=O)NCCOc1ccc2c(c1)[C@H](Cc1ccccc1)[C@H](NC)C(C)(C)O2 (relative stereo) [Example 74, cis-Propane-1-sulfonic acid [2-(-4-benzyl-2,2-dimethyl-3-methylamino-chroman-6-yloxy)-ethyl]-amide]
23 | ≤ 0.01 | Cn1cc(S(=O)(=O)NCCOc2ccc3c(c2)[C@H](Cc2ccccc2)[C@H](N2CCC2)CO3)cn1 (relative stereo) [Example 16, cis-1-Methyl-1H-pyrazole-4-sulfonic acid [2-(3-azetidin-1-yl-4-benzyl-chroman-6-yloxy)-ethyl]-amide]
24 | ≤ 0.1 | CCCS(=O)(=O)NCCOc1ccc2c(c1)[C@H](Cc1ccccc1)[C@H](NC)CO2 (relative stereo) [Example 3a, cis-N-(2-{[-4-Benzyl-3-(methylamino)-3,4-dihydro-2H-chromen-6-yl]oxy}ethyl)propane-1-sulfonamide]

target: T2, MDR1 (P-gp) (Homo sapiens, UniProt P08183); test: Efflux ratio by bidirectional transport in MDR1-MDCK cells; type: in vitro ADME; details: dog; MDR1-MDCK monolayers, 1 μM compound, HBSS pH 7.4, 1 h at 37 C; calculated from permeability coefficients
T2 construct: expressed in transfected cells; host or cells: Madin-Darby Canine Kidney Type II cells (MDR1-MDCK)
T2 sequence (P08183 whole entry, species assumed): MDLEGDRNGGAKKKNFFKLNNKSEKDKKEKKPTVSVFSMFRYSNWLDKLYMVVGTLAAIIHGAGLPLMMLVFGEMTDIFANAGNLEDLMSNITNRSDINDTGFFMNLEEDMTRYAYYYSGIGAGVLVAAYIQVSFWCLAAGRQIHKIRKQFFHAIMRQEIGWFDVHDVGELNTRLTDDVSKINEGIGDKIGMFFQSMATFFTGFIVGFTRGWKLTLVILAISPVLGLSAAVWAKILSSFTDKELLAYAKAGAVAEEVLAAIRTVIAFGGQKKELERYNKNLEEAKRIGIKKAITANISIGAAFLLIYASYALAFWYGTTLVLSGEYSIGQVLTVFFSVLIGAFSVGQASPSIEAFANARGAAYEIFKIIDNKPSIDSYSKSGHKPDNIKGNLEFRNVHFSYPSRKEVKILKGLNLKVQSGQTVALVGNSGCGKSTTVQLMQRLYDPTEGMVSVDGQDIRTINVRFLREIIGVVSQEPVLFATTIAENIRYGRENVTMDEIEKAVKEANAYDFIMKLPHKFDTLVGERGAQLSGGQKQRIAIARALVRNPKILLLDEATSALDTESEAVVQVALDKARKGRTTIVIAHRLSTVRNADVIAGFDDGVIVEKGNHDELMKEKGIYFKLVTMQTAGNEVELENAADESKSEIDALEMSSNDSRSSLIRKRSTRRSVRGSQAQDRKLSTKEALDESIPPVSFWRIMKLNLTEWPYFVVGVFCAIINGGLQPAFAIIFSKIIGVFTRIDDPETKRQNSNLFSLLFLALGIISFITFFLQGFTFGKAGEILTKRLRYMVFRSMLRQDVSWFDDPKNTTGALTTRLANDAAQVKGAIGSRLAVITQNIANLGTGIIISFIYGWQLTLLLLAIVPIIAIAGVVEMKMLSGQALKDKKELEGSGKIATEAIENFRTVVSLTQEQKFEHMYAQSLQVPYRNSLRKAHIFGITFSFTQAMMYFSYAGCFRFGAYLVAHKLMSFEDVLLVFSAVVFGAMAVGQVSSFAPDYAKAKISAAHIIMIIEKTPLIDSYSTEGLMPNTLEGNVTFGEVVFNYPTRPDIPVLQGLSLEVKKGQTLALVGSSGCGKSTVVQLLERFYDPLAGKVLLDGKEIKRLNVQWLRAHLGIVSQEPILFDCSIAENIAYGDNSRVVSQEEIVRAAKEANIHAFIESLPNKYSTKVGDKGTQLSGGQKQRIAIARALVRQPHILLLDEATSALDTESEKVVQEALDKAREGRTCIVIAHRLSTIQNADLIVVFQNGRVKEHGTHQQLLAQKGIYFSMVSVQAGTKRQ
Description: 3. Determination of Efflux Ratio Using Madin-Darby Canine Kidney Type II Cells
Bidirectional transport experiments were performed on Madin-Darby Canine Kidney Type II cells over-expressing multidrug resistance protein 1 (MDR1-MDCK) to evaluate the compounds as potential P-gp substrates.
Compounds were added at 1 μM in HBSS-pH 7.4 (hanks balanced salt solution) to either the apical or basolateral side of MDR1-MDCK cell monolayers grown on Millicell 96-Cell polycarbonate filters. Samples were collected from both apical and basolateral sides at time 0 and after 1 h incubation at 37 C, compounds concentrations were measured by HPLC/MS/MS and permeability coefficients were then determined in both transport directions. The efflux ratio was subsequently calculated from the permeability coefficient.

Row | efflux ratio at 1 h, 1 μM | SMILES
25 | 1.4 | CN[C@@H]1COc2ccc(CNS(=O)(=O)C3CCC3)cc2[C@@H]1Cc1ccccc1 (relative stereo) [Example 25, cis-Cyclobutanesulfonic acid (4-benzyl-3-methylamino-chroman-6-ylmethyl)-amide]
